Data on 17 molecules can be found in publication PMC9661473.

Data set [1] deals with 2N3M (DNA, aptamer) TGGTGGTGGTTGTTGTGGTGGTGGTGGT
Put plainly: microscale thermophoresis. To be noted: 100 mM KCl; 25 mM potassium phosphate, pH 7.05, 25 °C, 200 nM aptamer. A general note: In MST a laser heats a spot of the sample, and binding alters the fluorescence response.

The test system of data set [2] is DNA TA (DNA, aptamer) GGTTGGTGTGGTTGG
Put plainly: microscale thermophoresis. Particulars: 100 mM KCl; 25 mM PBS, pH 7.05, 25 °C, 200 nM aptamer.

In data set [3] the test system is 2N3M (DNA, aptamer) TGGTGGTGGTTGTTGTGGTGGTGGTGGT
Briefly: microscale thermophoresis, Hill fit. To be noted: 100 mM KCl; 25 mM potassium phosphate, pH 7.05, 25 °C, 200 nM aptamer.

Data set [4] deals with DNA TA (DNA, aptamer) GGTTGGTGTGGTTGG
Put plainly: microscale thermophoresis, Hill fit. To be noted: 100 mM KCl; 25 mM PBS, pH 7.05, 25 °C, 200 nM aptamer.

Data set [5] relates to DNA TA (unlabeled, NMR) (DNA, aptamer) GGTTGGTGTGGTTGG
Briefly: 1H 1D and 2D NOESY NMR. To be noted: 100 mM KCl; 25 mM potassium phosphate, pH 7.4, 298 K, 10% D2O, 500 μM DNA, 2 equiv YER.

In data set [6] the test system is RNA TA (RNA, aptamer) GGUUGGUGUGGUUGG
Put plainly: microscale thermophoresis, Hill fit. To be noted: 100 mM KCl; 25 mM PBS, pH 7.05, 40 °C, 200 nM aptamer.

Data set [7] has as its target T1, ERN tripeptide (thrombin loop fragment) (UniProt P00734 435-437).
T1 chain: ERN
Put plainly: MST; 100 mM KCl, 25 C; MST: 200 nM FAM-oligo; 25 mM PBS pH 7.05, 100 mM KCl (DNA TA 25 C, RNA TA 40 C) or 25 mM K-phosphate pH 7.05, 100 mM KCl (2N3M, 25 C), Hill fit; NMR: 500 uM DNA TA, 25 mM K-phosphate pH 7.4, 100 mM KCl, 10% D2O, 298 K. Particulars: label: 5'-FAM; intramolecular G-quadruplex.

In data set [8] the target is T2, RYE tripeptide (thrombin loop fragment) (UniProt P00734 433-435).
T2 chain: RYE
The description is as above. Particulars: label: 5'-FAM; intramolecular G-quadruplex.

Data set [9] has as its target T3, YER tripeptide (thrombin loop fragment) (UniProt P00734 434-436).
T3 chain: YER
The data set is described as above. To be noted: label: 5'-FAM; intramolecular G-quadruplex.

In a further data set the target is T4, ER dipeptide (UniProt P00734 435-436).
T4 chain: ER
The description is as above. To be noted: label: 5'-FAM; intramolecular G-quadruplex.

The target of another data set is T5, YE dipeptide (UniProt P00734 434-435).
T5 chain: YE
Described as above. To be noted: label: 5'-FAM; intramolecular G-quadruplex.

Data set [10] addresses T6, REV tripeptide (RET analogue) (UniProt P19338 604-606, T606V).
T6 chain: REV
The data set is described as above. To be noted: label: 5'-FAM; intramolecular G-quadruplex.

Data set [11] deals with T7, RET tripeptide (nucleolin loop fragment) (UniProt P19338 604-606).
T7 chain: RET
The data set is described as above. To be noted: label: 5'-FAM; intramolecular G-quadruplex.

The target in data set [12] is T8, QET tripeptide (RET analogue) (UniProt P19338 604-606, R604Q).
T8 chain: QET
The data set is described as above. To be noted: label: 5'-FAM; intramolecular G-quadruplex.

Data set [13] deals with T3, YER tripeptide (thrombin loop fragment). Briefly: MST; 100 mM KCl, 40 C; MST: 200 nM FAM-oligo; 25 mM PBS pH 7.05, 100 mM KCl (DNA TA 25 C, RNA TA 40 C) or 25 mM K-phosphate pH 7.05, 100 mM KCl (2N3M, 25 C), Hill fit; NMR: 500 uM DNA TA, 25 mM K-phosphate pH 7.4, 100 mM KCl, 10% D2O, 298 K. To be noted: label: 5'-FAM; intramolecular G-quadruplex (modelled).

Where a SMILES comes first, the peptide text is derived from it.

Consider `C[C@@H](O)[C@H](N)C(=O)O`, for which the binding result in data set [1] was “no”.

For the molecule `N=C(N)NCCC[C@H](N)C(=O)O`, the binding result in data set [2] and in data set [1] was “no” in each case.

For `N[C@@H](CCC(=O)O)C(=O)O`, the binding result in [2] and in data set [1] was “no” each time.

In the case of `N[C@@H](Cc1ccc(O)cc1)C(=O)O`, the binding entry in data set [2] is “no”.

By Kd is commonly meant the constant that tells how readily two partners part at equilibrium. Higher therefore signals weaker binding. Turning to `C[C@@H](O)[C@H](NC(=O)[C@H](CCC(=O)O)NC(=O)[C@@H](N)CCCNC(=N)N)C(=O)O` (H-Arg-Glu-Thr-OH), in data set [3], the Kd came out at 0.1 ± 0.02 µM.

Consider `CC(C)[C@H](NC(=O)[C@H](CCC(=O)O)NC(=O)[C@@H](N)CCCNC(=N)N)C(=O)O` (H-Arg-Glu-Val-OH), for which the binding entry in data set [1] is on record as “no”.

In data set [4], `N=C(N)NCCC[C@H](N)C(=O)N[C@@H](Cc1ccc(O)cc1)C(=O)N[C@@H](CCC(=O)O)C(=O)O` (H-Arg-Tyr-Glu-OH) displayed a dissociation constant Kd of 52 ± 5 µM.

As for `C[C@@H](O)[C@H](NC(=O)[C@H](CCC(=O)O)NC(=O)[C@@H](N)CCC(N)=O)C(=O)O` (H-Gln-Glu-Thr-OH), the binding result in data set [1] is given as “no”.

`N=C(N)NCCC[C@H](NC(=O)[C@@H](N)CCC(=O)O)C(=O)N[C@@H](CC(N)=O)C(=O)O` (H-Glu-Arg-Asn-OH): in data set [4], the Kd was determined as 12 ± 1 µM.

Regarding `N=C(N)NCCC[C@H](NC(=O)[C@@H](N)CCC(=O)O)C(=O)O` (H-Glu-Arg-OH), the binding entry in [2] is “no”.

With `NC(N)=NCCC[C@H](NC(=O)[C@H](CCC(=O)O)NC(=O)[C@@H](N)Cc1ccccc1)C(=O)O` (H-Phe-Glu-Arg-OH), the binding entry in data set [2] is recorded as “no”.

In the case of `N=C(N)NCCC[C@H](NC(=O)[C@H](CCC(=O)O)NC(=O)[C@@H](N)Cc1ccc(O)cc1)C(=O)O` (H-Tyr-Glu-Arg-OH), the binding result in data set [5] is reported as “yes”. Moreover, the equilibrium dissociation constant (Kd) in data set [4] is 5 ± 1 µM; in data set [6], 37 ± 9 µM.

On to `NCCCC[C@H](NC(=O)[C@H](CCC(=O)O)NC(=O)[C@@H](N)Cc1ccc(O)cc1)C(=O)O` (H-Tyr-Glu-Lys-OH), for which the binding result in [2] is “no”.

On to `N[C@@H](Cc1ccc(O)cc1)C(=O)N[C@@H](CCC(=O)O)C(=O)O` (H-Tyr-Glu-OH), for which the binding result in data set [2] is on record as “no”.

Take GGTTGGTGTGGTTGG (structured_DNA) [DNA TA (FAM)]: the dissociation constant (Kd) in data set [7] was determined as 12 ± 1 µM; in data set [8], 52 ± 5 µM; in data set [9], 5 ± 1 µM. Further, the binding result with ER dipeptide and with YE dipeptide was “no binding” in each case.

Take TGGTGGTGGTTGTTGTGGTGGTGGTGGT (structured_DNA) [2N3M (AS1411 derivative, FAM)]: the binding result in data set [10] and in data set [12] was “no binding” each time. In addition, in data set [11], the Kd is 0.1 ± 0.02 µM.

As for GGUUGGUGUGGUUGG (structured_RNA) [RNA TA (FAM)], the Kd in data set [13] came out at 37 ± 9 µM.
